# Where a name gives a salt, the structure may show the parent alone. Read-outs that look alike come from different tables or passages of the source.
# Experiments:
# Female Kunming mice = settings: as disclosed in patent CN201911076305.X; cited from earlier work
# hERG potassium channel = hERG potassium channel (Homo sapiens, UniProt Q12809); assay: hERG potassium channel whole-cell patch clamp (HEK293); type: cell-based; set-up: expressed in transfected cells; host or cells: HEK293 cell line; settings: for IC50: HEK293 cells stably expressing hERG, whole-cell patch clamp, room temperature, read-out: Half-inhibition concentration of compounds to be tested on hERG (IC50)
# Method in brief: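 Whole-cell patch clamp in HEK293 cells at room temperature: tail current elicited by −80 to 30 mV for 2.5 s, then −50 mV for 4 s, every 10 s. Ascending concentrations were gravity-perfused for 5 min each, with each cell's compound-free current as control. IC50 came from nonlinear fit of inhibition.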
# Chain of hERG potassium channel (Q12809 whole entry, the tested form may be a part): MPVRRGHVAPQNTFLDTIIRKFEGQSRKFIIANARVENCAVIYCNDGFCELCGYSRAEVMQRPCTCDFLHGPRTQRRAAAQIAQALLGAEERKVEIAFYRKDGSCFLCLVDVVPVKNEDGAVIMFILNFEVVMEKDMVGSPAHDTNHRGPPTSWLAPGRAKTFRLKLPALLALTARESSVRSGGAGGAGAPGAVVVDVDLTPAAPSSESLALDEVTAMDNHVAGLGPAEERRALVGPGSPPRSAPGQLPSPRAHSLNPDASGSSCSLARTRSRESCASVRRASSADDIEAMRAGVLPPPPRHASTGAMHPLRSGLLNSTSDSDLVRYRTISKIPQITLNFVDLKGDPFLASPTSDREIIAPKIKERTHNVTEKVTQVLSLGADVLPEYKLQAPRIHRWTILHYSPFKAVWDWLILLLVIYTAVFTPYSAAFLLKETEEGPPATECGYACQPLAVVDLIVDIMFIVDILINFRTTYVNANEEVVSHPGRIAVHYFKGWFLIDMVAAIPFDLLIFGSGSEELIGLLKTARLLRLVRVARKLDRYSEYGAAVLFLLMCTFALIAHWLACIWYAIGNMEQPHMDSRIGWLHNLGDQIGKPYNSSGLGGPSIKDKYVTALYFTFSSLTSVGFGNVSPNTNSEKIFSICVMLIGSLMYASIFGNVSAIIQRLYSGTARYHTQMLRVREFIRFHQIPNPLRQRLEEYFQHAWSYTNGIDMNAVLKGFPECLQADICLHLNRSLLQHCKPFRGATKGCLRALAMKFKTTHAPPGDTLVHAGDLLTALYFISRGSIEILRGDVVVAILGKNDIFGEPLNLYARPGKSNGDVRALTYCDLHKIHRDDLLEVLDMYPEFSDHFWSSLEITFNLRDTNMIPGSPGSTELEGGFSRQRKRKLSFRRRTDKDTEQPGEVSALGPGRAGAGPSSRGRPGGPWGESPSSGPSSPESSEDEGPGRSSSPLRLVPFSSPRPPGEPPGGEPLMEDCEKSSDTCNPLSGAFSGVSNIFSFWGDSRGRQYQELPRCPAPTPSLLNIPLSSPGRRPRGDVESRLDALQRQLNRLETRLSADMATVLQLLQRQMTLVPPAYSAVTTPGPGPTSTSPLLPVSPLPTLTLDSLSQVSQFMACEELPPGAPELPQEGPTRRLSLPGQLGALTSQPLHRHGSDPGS
structure (smiles),measurement,setting,value
"COc1cccc([C@]2(O)CCN(S(=O)(=O)Cc3ccccc3)C[C@H]2CN(C)C)c1.Cl [Example 20 of CN201911076305.X, reference compound]",ED50 in mouse hot plate experiments,Female Kunming mice,0.49 mg/kg
same,hERG inhibition grade,"hERG potassium channel; listed as Example 20 of patent CN201911076305.X, hydrochloride",moderate inhibitory effects on hERG
same,hERG inhibition grade,"hERG potassium channel; listed as example 20 of the prior art CN201911076305.X, hydrochloride",μM(Moderate intensity inhibition)
[2H]C([2H])([2H])Oc1cccc([C@]2(O)CCN(C(=O)Cc3cc(F)c(F)cc3F)C[C@H]2CN(C([2H])([2H])[2H])C([2H])([2H])[2H])c1 [II-11hydrochloride],hERG inhibition grade,hERG potassium channel,μM((Weak inhibition)
same,IC50,hERG potassium channel,20.2 µM
[2H]C([2H])([2H])Oc1cccc([C@]2(O)CCN(S(=O)(=O)Cc3ccccc3)C[C@H]2CN(C([2H])([2H])[2H])C([2H])([2H])[2H])c1 [II-5hydrochloride],hERG inhibition grade,hERG potassium channel,μM((Weak inhibition)
same,IC50,hERG potassium channel,23.9 µM
[2H]C([2H])([2H])N(C[C@@H]1CN(S(=O)(=O)Cc2ccccc2)CC[C@@]1(O)c1cccc(OC)c1)C([2H])([2H])[2H] [II-3hydrochloride],hERG inhibition grade,hERG potassium channel,μM((Weak inhibition)
same,IC50,hERG potassium channel,14.7 µM
[2H]C([2H])([2H])N(C[C@@H]1CN(C(=O)Cc2cc(F)c(F)cc2F)CC[C@@]1(O)c1cccc(OC)c1)C([2H])([2H])[2H] [II-9hydrochloride],hERG inhibition grade,hERG potassium channel,μM((Weak inhibition)
same,IC50,hERG potassium channel,20.5 µM
